Test results taken from US7700609B2, “Compositions useful as inhibitors of protein kinases” (Vertex Pharmaceuticals Incorporated, priority 2003, dated 2010).
pKi: −log10 of the molar value.

target: T1, Itk (Homo sapiens, UniProt Q08881); assay: Itk inhibition assay: spectrophotometric coupled enzyme (Method C); type: biochemical; settings: 100 μM ATP, read-out: Ki in the standard coupled enzyme assay (Method C)
T1 sequence (Q08881 1-620): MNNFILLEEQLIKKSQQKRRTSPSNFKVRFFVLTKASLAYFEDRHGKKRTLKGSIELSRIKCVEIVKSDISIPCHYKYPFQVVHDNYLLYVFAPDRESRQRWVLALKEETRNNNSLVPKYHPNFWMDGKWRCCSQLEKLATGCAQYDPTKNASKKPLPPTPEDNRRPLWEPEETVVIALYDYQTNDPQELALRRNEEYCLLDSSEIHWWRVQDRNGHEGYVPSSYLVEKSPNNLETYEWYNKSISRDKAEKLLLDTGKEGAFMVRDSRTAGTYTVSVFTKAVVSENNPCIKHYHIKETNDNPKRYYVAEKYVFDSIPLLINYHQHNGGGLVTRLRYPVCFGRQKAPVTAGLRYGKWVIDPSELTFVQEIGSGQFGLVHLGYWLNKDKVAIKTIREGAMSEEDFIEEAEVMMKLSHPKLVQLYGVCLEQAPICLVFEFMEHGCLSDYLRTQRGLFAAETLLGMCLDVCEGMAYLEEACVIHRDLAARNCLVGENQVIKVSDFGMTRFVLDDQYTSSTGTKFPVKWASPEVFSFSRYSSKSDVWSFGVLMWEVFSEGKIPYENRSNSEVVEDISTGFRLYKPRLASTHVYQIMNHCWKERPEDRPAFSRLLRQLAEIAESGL
Experimental: (§1) The compounds of the present invention were evaluated as inhibitors of human Itk kinase using either a radioactivity-based, spectrophotometric or alphascreen assay.
Compounds were screened for their ability to inhibit Itk using a standard coupled enzyme assay (Fox et al., Protein Sci., (1998) 7, 2249).
Assays were carried out in a mixture of 20 mM MOPS (pH 7.0), 10 mM MgCl2, 0.1% BSA, 1 mM DTT, 2.5 mM phosphoenolpyruvate, 300 μM NADH, 30 μg/ml pyruvate kinase and 10 μg/ml lactate dehydrogenase. Final substrate concentrations in the assay were 100 μM ATP (Sigma Chemicals) and 3 μM peptide (Biotinylated SAM68 Δ332-443). Assays were carried out at 25° C. and in the presence of 10 nM Itk.
An assay stock buffer solution was prepared containing all of the reagents listed above, with the exception of ATP and the test compound of interest. 60 μl of the stock solution was placed in a 96 well plate followed by addition of 2 μl of DMSO stock containing serial dilutions of the test compound (typically starting from a final concentration of 15 μM). The plate was preincubated for 10 minutes at 25° C. and the reaction initiated by addition of 5 μl of ATP. Initial reaction rates were determined with a Molecular Devices SpectraMax Plus plate reader over a 10 minute time course. IC50 and Ki data were calculated from non-linear regression analysis using the Prism software package (GraphPad Prism version 3.0cx for Macintosh, GraphPad Software, San Diego Calif., USA).

pKi, > 6.00:
CS(=O)(=O)c1cccc(Nc2ncc3ccc4sc(C(=O)NCc5ccccc5)cc4c3n2)c1 [Compound V-129]
CS(=O)(=O)c1cccc(Nc2ncc3ccc4sc(C(=O)N5CCCC5)cc4c3n2)c1 [Compound V-130]
CS(=O)(=O)c1cccc(Nc2ncc3ccc4sc(C(=O)N5CCNC(=O)C5)cc4c3n2)c1 [Compound V-131]
CS(=O)(=O)c1cccc(Nc2ncc3ccc4sc(C(=O)NC5(CO)CCCC5)cc4c3n2)c1 [Compound V-132]
CS(=O)(=O)c1cccc(Nc2ncc3ccc4sc(C(=O)NCCO)cc4c3n2)c1 [Compound V-133]
COCCNC(=O)c1cc2c(ccc3cnc(Nc4cccc(S(C)(=O)=O)c4)nc32)s1 [Compound V-134]
CC(=O)NCCNC(=O)c1cc2c(ccc3cnc(Nc4cccc(S(C)(=O)=O)c4)nc32)s1 [Compound V-135]
CS(=O)(=O)c1cccc(Nc2ncc3ccc4sc(C(=O)N5CCCNCC5)cc4c3n2)c1 [Compound V-136]
CC1CN(C(=O)c2cc3c(ccc4cnc(Nc5cccc(S(C)(=O)=O)c5)nc43)s2)CC(C)N1 (stereo not drawn) [Compound V-137]
CC(=O)N1CCCN(C(=O)c2cc3c(ccc4cnc(Nc5cccc(S(C)(=O)=O)c5)nc43)s2)CC1 [Compound V-138]
COCCN(C)C(=O)c1cc2c(ccc3cnc(Nc4cccc(S(C)(=O)=O)c4)nc32)s1 [Compound V-139]
CC(C)N(C)C(=O)c1cc2c(ccc3cnc(Nc4cccc(S(C)(=O)=O)c4)nc32)s1 [Compound V-140]
CN(C)C(=O)c1cc2c(ccc3cnc(Nc4cccc(S(C)(=O)=O)c4)nc32)s1 [Compound V-141]
CS(=O)(=O)c1cccc(Nc2ncc3ccc4sc(C(=O)N5CCC[C@H]5CO)cc4c3n2)c1 [Compound V-142]
C[C@@H]1CN(C(=O)c2cc3c(ccc4cnc(Nc5cccc(S(C)(=O)=O)c5)nc43)s2)C[C@H](C)O1 [Compound V-143]
CS(=O)(=O)c1cccc(Nc2ncc3ccc4sc(C(=O)N5CCC(C(N)=O)CC5)cc4c3n2)c1 [Compound V-144]
CS(=O)(=O)c1cccc(Nc2ncc3ccc4sc(C(=O)NCCN5CCNC5=O)cc4c3n2)c1 [Compound V-145]
CS(=O)(=O)c1cccc(Nc2ncc3ccc4sc(C(=O)NCC5CCNC5)cc4c3n2)c1 (stereo not drawn) [Compound V-146]
CC(=O)N1CCN(C(=O)c2cc3c(ccc4cnc(Nc5cccc(S(C)(=O)=O)c5)nc43)s2)CC1 [Compound V-147]
CC(=O)NC1CCN(C(=O)c2cc3c(ccc4cnc(Nc5cccc(S(C)(=O)=O)c5)nc43)s2)C1 (stereo not drawn) [Compound V-148]
CS(=O)(=O)c1cccc(Nc2ncc3ccc4sc(C(=O)NCC5CCNCC5)cc4c3n2)c1 [Compound V-149]
CS(=O)(=O)c1cccc(Nc2ncc3ccc4sc(C(=O)NC5CCOCC5)cc4c3n2)c1 [Compound V-150]
CS(=O)(=O)c1cccc(Nc2ncc3ccc4sc(C(=O)NC5CCC(O)CC5)cc4c3n2)c1 (stereo not drawn) [Compound V-151]
CN(CCO)C(=O)c1cc2c(ccc3cnc(Nc4cccc(S(C)(=O)=O)c4)nc32)s1 [Compound V-152]
COC[C@H](C)NC(=O)c1cc2c(ccc3cnc(Nc4cccc(S(C)(=O)=O)c4)nc32)s1 [Compound V-153]
CS(=O)(=O)c1cccc(Nc2ncc3ccc4sc(C(=O)N5CCC(O)CC5)cc4c3n2)c1 [Compound V-154]
COC[C@H]1CCCN1C(=O)c1cc2c(ccc3cnc(Nc4cccc(S(C)(=O)=O)c4)nc32)s1 [Compound V-155]
CS(=O)(=O)c1cccc(Nc2ncc3ccc4sc(C(=O)N5CCC(O)C5)cc4c3n2)c1 (stereo not drawn) [Compound V-156]
CCN(CCN(C)C)C(=O)c1cc2c(ccc3cnc(Nc4cccc(S(C)(=O)=O)c4)nc32)s1 [Compound V-157]
O=C(c1cc2c(ccc3cnc(NCCc4ccc(Cl)cc4)nc32)s1)N1CCNCC1 [Compound V-159]
O=C(c1cc2c(ccc3cnc(NCCc4ccccc4Cl)nc32)s1)N1CCNCC1 [Compound V-162]
Nc1ccc(CCNc2ncc3ccc4sc(C(=O)N5CCNCC5)cc4c3n2)cc1 [Compound V-165]
CC(=O)N1CCc2ccc(Nc3ncc4ccc5sc(C(=O)N6CCNCC6)cc5c4n3)cc21 [Compound V-166]
O=C(c1cc2c(ccc3cnc(NCCc4cccc(Cl)c4)nc32)s1)N1CCNCC1 [Compound V-167]
O=C(c1cc2c(ccc3cnc(NCCCc4ccccc4)nc32)s1)N1CCNCC1 [Compound V-170]
O=C(c1cc2c(ccc3cnc(NC4Cc5ccccc5C4)nc32)s1)N1CCNCC1 [Compound V-172]
O=C(c1cc2c(ccc3cnc(NCCc4cccnc4)nc32)s1)N1CCNCC1 [Compound V-173]
COc1ccc(CCNc2ncc3ccc4sc(C(=O)N5CCNCC5)cc4c3n2)cc1 [Compound V-175]
NC1CCN(C(=O)c2nc3ccc4cnc(Nc5cccc(S(N)(=O)=O)c5)nc4c3s2)CC1 [Compound V-176]
NS(=O)(=O)c1cccc(Nc2ncc3ccc4nc(C(=O)N5CCNCC5)sc4c3n2)c1 [Compound V-177]
O=C(c1cc2c(ccc3cnc(NCCc4c[nH]cn4)nc32)s1)N1CCNCC1 [Compound V-178]
O=C(c1cc2c(ccc3cnc(NCCc4ccccn4)nc32)s1)N1CCNCC1 [Compound V-179]
O=C(c1cc2c(ccc3cnc(NCCc4ccc(F)cc4)nc32)s1)N1CCNCC1 [Compound V-180]
O=C(c1cc2c(ccc3cnc(NCCc4ccc(O)cc4)nc32)s1)N1CCNCC1 [Compound V-182]

target: T1, Itk; assay: Itk inhibition assay: Alphascreen (Method B); type: biochemical; settings: 100 μM ATP
Experimental: as §1
Assays were carried out in a mixture of 20 mM MOPS (pH 7.0), 10 mM MgCl2, 0.1% BSA and 1 mM DTT. Final substrate concentrations in the assay were 100 μM ATP (Sigma Chemicals) and 2 μM peptide (Biotinylated SAM68 Δ332-443). Assays were carried out at 25° C. and in the presence of 10 nM Itk. An assay stock buffer solution was prepared containing all of the reagents listed above, with the exception of ATP and the test compound of interest. 25 μL of the stock solution was placed in each well of a 96 well plate followed by 1 μL of DMSO containing serial dilutions of the test compound (typically starting from a final concentration of 15 μM) in duplicate (final DMSO concentration 2%). The plate was preincubated for 10 minutes at 25° C. and the reaction initiated by addition of 25 μL ATP (final concentration 100 μM). Background counts were determined by the addition of 5 μL 500 mM EDTA to control wells containing assay stock buffer and DMSO prior to initiation with ATP. The reaction was stopped after 30 minutes by diluting the reaction 225-fold into MOPS buffer (20 mM MOPS (pH 7.0), 1 mM DTT, 10 mM MgCl2, 0.1% BSA) containing 50 mM EDTA to bring the final concentration of peptide to 9 nM.
AlphaScreen™ reagents were prepared according to the manufacturers instructions (AlphaScreen™ phosphotyrosine (P-Tyr-100) assay kit, PerkinElmer catalogue number 6760620C). Under subdued lighting, 20 μL of AlphaScreen™ reagents were placed in each well of a white half area 96 well plate (Corning Inc.—COSTAR 3693) with 30 μL of the stopped, diluted kinase reactions. Plates were incubated in the dark for 60 minutes prior to reading on a Fusion Alpha plate reader (PerkinElmer).
After removing mean background values for all of the data points, Ki(app) data were calculated from non-linear regression analysis using the Prism software package (GraphPad Prism version 3.0cx for Macintosh, GraphPad Software, San Diego Calif., USA).

pKi, > 6.00:
COc1cccc(-c2cc3c(s2)CCc2cnc(Nc4cccc(NC(C)=O)c4)nc2-3)c1 [Compound I-36]
CC1(C)Cc2cnc(Nc3cccc(S(N)(=O)=O)c3)nc2-c2ccsc21 [Compound I-41]
NS(=O)(=O)c1cccc(Nc2ncc3ccc4sc(C(=O)N5CCNCC5)cc4c3n2)c1 [Compound V-4]
NS(=O)(=O)c1cccc(Nc2ncc3ccc4sc(C(=O)N5CCCCC5)cc4c3n2)c1 [Compound V-36]
NS(=O)(=O)c1cccc(Nc2ncc3ccc4sc(C(=O)N5CCOCC5)cc4c3n2)c1 [Compound V-37]
CC(C)(C)OC(=O)N1CCN(C(=O)c2cc3c(ccc4cnc(Nc5cccc(S(N)(=O)=O)c5)nc43)s2)CC1 [Compound V-38]
CC(C)(C)OC(=O)NCCCNC(=O)c1cc2c(ccc3cnc(Nc4cccc(S(N)(=O)=O)c4)nc32)s1 [Compound V-39]
